Paper PMC12081029, “Structural, Spectroscopic, and Docking Analysis of N,O‐Donor Ligand Metal Complex Nanoparticles With Hypolipidemic Effects via Lipoprotein Lipase Activation in High‐Fat Diet Mice” (Chemistry & Biodiversity, 2024)
Values joined by “and” are separate entries in the source; they are usually repeats but may differ in a detail not shown here. Equal entries are not always repeated. Structures can show the parent of a compound that is named as a salt. Where two headings read alike, the source gives them in different places.

What was measured:
Escherichia coli [1] = test: MIC / MBC determination
Bacillus subtilis [2] = test: MIC / MBC determination
Staphylococcus aureus [3] = test: MIC / MBC determination
Aspergillus terreus [4] = test: MIC determination
Aspergillus niger [5] = test: Agar diffusion, inhibition zone (ZOI) and activity index; details: for ZOI: 10^−3 M in DMF, 5 mm holes, 7 days at 30°C
[6] = system: lipoprotein lipase (L. lipase); test: Serum L. lipase activity in high-fat diet mice (fluorometric kit); type: in vivo; details: HFD C57BL/6 mice; for L. lipase (serum enzyme activity): 4 mg kg^−1 body weight in DMF, 3 months, mean ± SD; for mean L. lipase activity: rounded, 4 mg kg^−1 body weight
Method: (§1) This study employed 8‐week‐old male C57BL/6 mice of matched weight (around 20–25 g) from an inbred “genetically identical” strain. The mice were purchased from the National Research Center's Animal House. Then, they were subdivided into five groups, each group containing eight mice; four groups were treated with CETZ.2HCl (antihistamine drug) and its metal complexes, whereas one group was left untreated and classified as a control group. Animals were housed in modular plastic veterinary cages at air‐conditioned room, under pathogen‐free conditions. Mice were fed HFD, which consisted of carbs 42.0%, fat 23.0%, protein 17.0%, fiber 3.0%, minerals 5.0%, and moisture 10.0% for 3 months, together with administration of either CETZ.2HCl or its metal complexes (4 mg kg ^−1 body weight) in DMF [37]. Experiments were performed in accordance with the regulations of the Animal Care and Use Committee of the College of Veterinary Medicine, Mansoura University (MU‐ACUC), Egypt; MU‐ACUC (PHARM.R.24.02.30), complied with “Guide for the Care and Use of Laboratory Animals” (National Research Council publication 8th ed., USA, 2011).
(§2) Specimens of blood were gathered from the retro‐orbital sinus, under halothane (1.5 percent v/v halothane in oxygen) anesthesia via inhalation. The collected blood was allowed to clot, by centrifugation at 1600 rpm for 20 min, to obtain serum. Isolated sera were maintained at −80°C until tests of liver function in addition to lipid profiles were performed. For estimation of L. lipase activity, fluorometric L. lipase activity assay kit was utilized following the manufacturer's protocol (Cat. No. STA‐610, Cell BIOLABS INC., San Diego, USA). Serum T. chol. LDL, HDL, TG, ALT (alanine aminotransferase), AST (aspartate aminotransferase), and ALP (alkaline phosphatase) were examined with Roche kits using COBAS Integra 400 and COBAS Integra‐400 plus (Roche Diagnostics Limited, Switzerland).

Salmonella typhi [7] = test: Agar diffusion, inhibition zone (ZOI) and activity index; type: cell-based; details: for ZOI: 10^−3 M in DMF, 5 mm holes, 20 h at 37°C
Staphylococcus aureus [8] = test: as above; details: for ZOI / AI: Staphylococcus aureus; for ZOI: 10^−3 M in DMF, 5 mm holes, 20 h at 37°C; for AI: ZOI of compound / ZOI of standard (ampicillin) × 100
Salmonella typhi [9] = test: MIC / MBC determination; type: cell-based
Aspergillus niger [10] = test: MIC determination
Aspergillus terreus [11] = test: Agar diffusion, inhibition zone (ZOI) and activity index; details: for ZOI: 10^−3 M in DMF, 5 mm holes, 7 days at 30°C; for AI: ZOI of compound / ZOI of standard (colitrimazole) × 100
Escherichia coli [12] = test: as above; details: for ZOI: 10^−3 M in DMF, 5 mm holes, 20 h at 37°C
Bacillus subtilis [13] = test: as above; details: for ZOI: 10^−3 M in DMF, 5 mm holes, 20 h at 37°C
[14] = Serum liver function enzymes in high-fat diet mice; type: in vivo; details: HFD C57BL/6 mice, 4 mg kg^−1 body weight, 3 months, mean ± SD
Method: as §1, §2

[15] = Serum lipid profile in high-fat diet mice; type: in vivo; details: HFD C57BL/6 mice, 4 mg kg^−1 body weight, 3 months, mean ± SD
Method: as §1, §2

Staphylococcus aureus [16] = details: cited from earlier work
Bacillus subtilis [17] = details: cited from earlier work
Escherichia coli [18] = details: cited from earlier work
Salmonella typhi [19] = system: Salmonella typhi; parameters: method as in PMID 16740311; details: cited from earlier work
Aspergillus niger [20] = system: Aspergillus niger; parameters: method as in PMID 16740311; details: cited from earlier work
[21] = Salmonella typhi, ZOI of compound / ZOI of standard (gentamicin) × 100
[22] = Escherichia coli, ZOI of compound / ZOI of standard (gentamicin) × 100
[23] = Bacillus subtilis, ZOI of compound / ZOI of standard (ampicillin) × 100
[24] = Table 9, preceding research ref [68]
[25] = Aspergillus niger, ZOI of compound / ZOI of standard (colitrimazole) × 100

Molecule	MBC (Escherichia coli [1])	MIC (Escherichia coli [1])	MIC (Bacillus subtilis [2]) [µg/mL]	MIC (Aspergillus terreus [4])	L. lipase (serum enzyme activity) [6]	mean L. lipase activity [6] [U L^−1]	ZOI (Salmonella typhi [7]; Salmonella typhi)	AI (Salmonella typhi [7]; [21]) [%]	ZOI (Aspergillus terreus [11])	AI (Aspergillus terreus [11]) [%]	ZOI (Escherichia coli [12]; Escherichia coli)	AI (Escherichia coli [12]; [22]) [%]	ZOI (Bacillus subtilis [13]; Bacillus subtilis)	AI (Bacillus subtilis [13]; [23]) [%]	ALP [14] [U L^−1]	ALT [14] [U L^−1]	AST [14]	HDL [15] [mg/dL]	LDL [15] [mg/dL]	Total Chol. [15] [mg/dL]	also measured
O=C(O)COCCN1CCN(C(c2ccccc2)c2ccc(Cl)cc2)CC1 (racemic) [CETZ.2HCl, (RS)‐2‐[2‐[4‐[(4‐chlorophenyl)phenylmethyl]piperazine‐L‐yl]‐ethoxy]acetic acid, dihydrochloride, reference compound]	0.091 µg/mL	0.075 ± 0.01 µg/mL	0.05	0.025 µg/mL and 0.025 ± 0.01 µg/mL	104.88± 26.5 U/L and 104.88 U/L	104.9	7.7 ±0.58 mm	37.2	10.3 ±0.27 mm	58.9	8.5 ±0.50 mm	43.6	12.1 ± 0.15 mm	42.6	90.5 ± 16.79	245.63 ± 43.99	345.5 ± 57.73 U L^−1	85.25 ± 6.23	93.25 ± 8.15	230.38	MBC (Staphylococcus aureus [3]): 0.049 µg/mL and 0.049 ± 0.01 µg/mL; MIC (Staphylococcus aureus [3]): 0.025 µg/mL and 0.025 ± 0.02 µg/mL; ZOI (Aspergillus niger [5]; Aspergillus niger): 12.5 ±0.36 mm; ZOI (Staphylococcus aureus [8]): 9.4 ± 0.02 mm; AI (Staphylococcus aureus [8]): 41.4%; MBC (Salmonella typhi [9]; Salmonella enterica, TYPHI): 0.037 ± 0.01 µg/mL; MIC (Aspergillus niger [10]): 0.025 µg/mL and 0.025 ± 0.01 µg/mL; Trig [15]: 80.5 ± 10.18 mg/dL
O.O.O=C([O-])COCCN1CCN(C(c2ccccc2)c2ccc(Cl)cc2)CC1.O=[N+]([O-])[O-].[Cu+2].c1ccc(-c2ccccn2)nc1 (stereo not shown) [[(Cu(CETZ)(Bipy)(H2O)2(NO3)]]																					AI (Staphylococcus aureus [16]; Table 9, Staphylococcus aureus ref [68]): 105.7; Staphylococcus aureus (inhibition zone) (Staphylococcus aureus [16]; [24]): 24 ^+ ^3 ± 0.13; AI (Bacillus subtilis [17]; Table 9, Bacillus subtillis ref [68]): 55.3; Bacillus subtillis (inhibition zone) (Bacillus subtilis [17]; [24]): 15.7 ^+ ^1 ± 0.001; AI (Escherichia coli [18]; Table 9, Escherichia coli ref [68]): 113.3; Escherichia coli (inhibition zone) (Escherichia coli [18]; [24]): 22.1 ^+ ^2 ± 0.005; AI (Salmonella typhi [19]; Table 9, Salmonella typhi ref [68]): 59.9; Salmonella typhi (inhibition zone) (Salmonella typhi [19]; [24]): 12.4 ^+ ^1 ± 0.22; AI (Aspergillus niger [20]; Table 9, Aspergillus niger ref [68]): 88.89; Aspergillus niger (inhibition zone) (Aspergillus niger [20]; [24]): 17.6 ^+ ^1 ± 0.11
O.O.O=C([O-])COCCN1CCN(C(c2ccccc2)c2ccc(Cl)cc2)CC1.O=[N+]([O-])[O-].[Cu+2].c1cnc2c(c1)ccc1cccnc12 (stereo not shown) [complex (1), [Cu(CETZ)(Phen)(H2O)2(NO3)]]	0.15 0.02 µg mL^−1	0.1 ± 0.006 µg/mL	0.050 ± 0.007	0.075 µg/mL and 0.075 ± 0.005 µg/mL	127.88 U/L	127.9	30.0 ^+ ^3 ±0.10 mm	144.9	10.5^NS ±1.06 mm	60.0	32.5 ^+ ^3 ±0.30 mm	166.6	23.3 ^+ ^2 ± 0.66 mm	82.04	88 ± 12.64	228.63 ± 50.57	274.63 ± 36.40^NS U L^−1	80.75 ± 8.26	60.5 ± 5.78	138.88 ± 10.92	MBC (Staphylococcus aureus [3]): 0.086 µg/mL and 0.086 ± 0.004 µg/mL; MIC (Staphylococcus aureus [3]): 0.075 µg/mL and 0.075 ± 0.03 µg/mL; ZOI (Aspergillus niger [5]; Aspergillus niger): 13.1^NS ±0.38 mm; AI (Aspergillus niger [5]; [25]): 66.16%; AI (Aspergillus niger [5]; Table 9, Aspergillus niger, this work): 88.89; Aspergillus niger (inhibition zone) (Aspergillus niger [5]; Table 9, this work): 13.1^NS ± 0.38; L. lipase (serum enzyme activity) ([6]; listed as Cu-CETZ Complex): 127.88±11.72 U/L; AI (Salmonella typhi [7]; Table 9, Salmonella typhi, this work): 59.9; Salmonella typhi (inhibition zone) (Salmonella typhi [7]; Table 9, this work): 30.0 ^+ ^3 ± 0.10; ZOI (Staphylococcus aureus [8]): 17.3 ^+ ^2 ±0.33 mm; AI (Staphylococcus aureus [8]): 76.2%; Staphylococcus aureus (inhibition zone) (Staphylococcus aureus [8]; Table 9, this work): 17.3 ^+ ^2 ± 0.33; MBC (Salmonella typhi [9]; Salmonella typhi): 0.081 ± 0.01 µg/mL; MIC (Salmonella typhi [9]; Salmonella typhi): 0.075 µg/mL and 0.075 ± 0.006 µg/mL; MIC (Aspergillus niger [10]): 0.050 µg/mL and 0.050 ± 0.02 µg/mL; AI (Escherichia coli [12]; Table 9, Escherichia coli, this work): 113.3; Escherichia coli (inhibition zone) (Escherichia coli [12]; Table 9, this work): 32.5 ^+ ^3 ± 0.30; AI (Bacillus subtilis [13]; Table 9, Bacillus subtillis, this work): 55.3; Bacillus subtillis (inhibition zone) (Bacillus subtilis [13]; Table 9, this work): 23.3 ^+ ^2 ± 0.66; Trig [15]: 77.25 ± 9.3 mg/dL
CC(=O)[O-].O.O.O=C([O-])COCCN1CCN(C(c2ccccc2)c2ccc(Cl)cc2)CC1.[Cd+2].c1cnc2c(c1)ccc1cccnc12 (stereo not shown) [complex (3), [Cd(CETZ)(Phen)(H2O)2(CH3COO)]]	0.23 ± 0.053 µg/mL	0.1 ± 0.02 µg/mL	0.075 ± 0.006	0.100 µg/mL and 0.1 ± 0.01 µg/mL	52.38 U/L	52.4	19.5 ^+ ^2 ±0.85 mm	94.2	14.7 ^+ ^1 ±0.55 mm	84.0	28.5 ^+ ^2 ±0.83 mm	146.1	32.0 ^+ ^3 ±0.68 mm	112.68	123.63 ± 11.45	283.75 ± 23.49	374.88 ± 36.33 U L^−1	44.63 ± 12.92	89.25 ± 9.45	283.75	L. lipase (serum enzyme activity) ([6]; listed as Cd-CETZ Complex): 52.38±9.6 U/L; MBC (Salmonella typhi [9]; Salmonella typhi): 0.066 ± 0.014 µg/mL; MIC (Salmonella typhi [9]; Salmonella typhi): 0.050 µg/mL and 0.050 ± 0.01 µg/mL; Trig [15]: 188.75 mg/dL
[Zn(CETZ)(Phen)(H2O)2Cl] [complex (2)]	0.063 ± 0.015 µg/mL	0.050 µg/mL and 0.050 ± 0.02 µg/mL	0.050 ± 0.01	0.050 µg/mL and 0.050 ± 0.02 µg/mL	108.88 U/L	108.9	18.0 ^+ ^2 ±0.17 mm	86.9	12.0^NS ±1.71 mm	68.57	7.9^NS ±0.34 mm	40.5	21.2 ^+ ^2 ±1.04 mm	74.65	49.63 ± 6.16	164.87 ± 35.27	156.5 ± 16.12 U L^−1	115.75 ± 13.32	71.63 ± 6.5	155.5 ± 16.01	MBC (Staphylococcus aureus [3]): 0.057 µg/mL and 0.057 ± 0.002 µg/mL; MIC (Staphylococcus aureus [3]): 0.050 µg/mL and 0.050 ± 0.007 µg/mL; ZOI (Aspergillus niger [5]; Aspergillus niger): 17.6 ^+ ^1 ±0.43 mm; AI (Aspergillus niger [5]; [25]): 88.88%; L. lipase (serum enzyme activity) ([6]; listed as Zn-CETZ Complex): 108.88±20.0 U/L; ZOI (Staphylococcus aureus [8]): 15.2 ^+ ^1 ±0.74 mm; AI (Staphylococcus aureus [8]): 66.9%; MBC (Salmonella typhi [9]; Salmonella typhi): 0.065 ± 0.014 µg/mL; MIC (Salmonella typhi [9]; Salmonella typhi): 0.050 µg/mL and 0.050 ± 0.007 µg/mL; MIC (Aspergillus niger [10]): 0.025 µg/mL and 0.025 ± 0.01 µg/mL; Trig [15]: 70.63 ± 6.05 mg/dL
